Laboratory results published in the supplement of paper PMC10307832.

What was measured:
Assay in all cases: relative viability (nuclei count vs DMSO), 5 days (fraction); higher = more cells survive
KIN001-266 + Pictilisib = compound: CCN1CCC(CC1)N2C=C(N=N2)CNC3=CC4=C(C(=CN=C4C(=C3)Cl)C#N)NC5=CC(=C(C=C5)F)Cl [KIN001-266] + CS(=O)(=O)N1CCN(Cc2cc3nc(-c4cccc5[nH]ncc45)nc(N4CCOCC4)c3s2)CC1 [Pictilisib] (partner 1 µM)
Procedure, shortened: (§1)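 Lung cancer cell lines were pin-tool dosed in 1536-well plates on the day after seeding, with either a lone drug or a fixed anchor-drug dose plus five library-drug doses (not always all listed) in √10 steps. Nuclei were counted on 4× images after 5 days. Relative viability is the ratio of treated-well to vehicle-well nuclei counts, with each value a median of duplicate plates.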

KIN001-266 + Crizotinib = compound: CCN1CCC(CC1)N2C=C(N=N2)CNC3=CC4=C(C(=CN=C4C(=C3)Cl)C#N)NC5=CC(=C(C=C5)F)Cl [KIN001-266] + C[C@@H](Oc1cc(-c2cnn(C3CCNCC3)c2)cnc1N)c1c(Cl)ccc(F)c1Cl [Crizotinib] (partner 1 µM)
Procedure, shortened: as §1

KIN001-266 + Dasatinib = compound: CCN1CCC(CC1)N2C=C(N=N2)CNC3=CC4=C(C(=CN=C4C(=C3)Cl)C#N)NC5=CC(=C(C=C5)F)Cl [KIN001-266] + Cc1nc(Nc2ncc(C(=O)Nc3c(C)cccc3Cl)s2)cc(N2CCN(CCO)CC2)n1 [Dasatinib] (partner 0.075 µM)
Procedure, shortened: as §1

KIN001-266 + Vorinostat = compound: CCN1CCC(CC1)N2C=C(N=N2)CNC3=CC4=C(C(=CN=C4C(=C3)Cl)C#N)NC5=CC(=C(C=C5)F)Cl [KIN001-266] + O=C(CCCCCCC(=O)Nc1ccccc1)NO [Vorinostat] (partner 1 µM)
Procedure, shortened: as §1

| Cell Line | relative viability (KIN001-266 + Pictilisib; first compound 0.08 µM) | relative viability (KIN001-266 + Pictilisib; first compound 0.253 µM) | relative viability (KIN001-266 + Pictilisib; first compound 0.8 µM) | relative viability (KIN001-266 + Pictilisib; first compound 2.53 µM) | relative viability (KIN001-266 + Pictilisib; first compound 8 µM) | relative viability (KIN001-266 + Crizotinib; first compound 0.08 µM) | relative viability (KIN001-266 + Crizotinib; first compound 0.253 µM) | relative viability (KIN001-266 + Crizotinib; first compound 0.8 µM) | relative viability (KIN001-266 + Crizotinib; first compound 2.53 µM) | relative viability (KIN001-266 + Crizotinib; first compound 8 µM) | relative viability (KIN001-266 + Dasatinib; first compound 0.08 µM) | relative viability (KIN001-266 + Dasatinib; first compound 0.253 µM) | relative viability (KIN001-266 + Dasatinib; first compound 2.53 µM) | relative viability (KIN001-266 + Dasatinib; first compound 8 µM) | relative viability (KIN001-266 + Vorinostat; first compound 0.08 µM) | relative viability (KIN001-266 + Vorinostat; first compound 0.253 µM) | relative viability (KIN001-266 + Vorinostat; first compound 0.8 µM) | relative viability (KIN001-266 + Vorinostat; first compound 2.53 µM) | relative viability (KIN001-266 + Vorinostat; first compound 8 µM) | relative viability (KIN001-266 + Dasatinib; first compound 0.8 µM) |
| --- | --- | --- | --- | --- | --- | --- | --- | --- | --- | --- | --- | --- | --- | --- | --- | --- | --- | --- | --- | --- |
| HCC-78 | 0.234 | 0.193 | 0.174 | 0.253 | 0.259 | 0.324 | 0.357 | 0.293 | 0.39 | 0.381 | 0.566 | 0.421 | 0.361 | 0.38 | 0.582 | 0.36 | 0.419 | 0.493 | 0.453 | – |
| HCC-366 | 0.132 | 0.114 | 0.107 | 0.154 | 0.156 | 0.52 | 0.514 | 0.478 | 0.482 | 0.5 | 0.783 | 0.591 | 0.656 | 0.656 | 0.436 | 0.338 | 0.294 | 0.373 | 0.443 | 0.627 |
| HCC-827 | 0.855 | 1.09 | – | 0.785 | 0.837 | 0.944 | 0.921 | – | 0.931 | 0.849 | 0.349 | 0.317 | 0.275 | 0.229 | 0.825 | 0.869 | 0.159 | 0.761 | 0.926 | – |
| HOP-62 | 0.592 | 0.813 | 0.728 | 0.372 | 0.506 | 0.823 | 1.09 | 0.924 | 0.963 | 0.971 | 0.662 | 0.686 | 0.675 | 0.55 | 0.812 | 0.661 | 0.786 | 0.685 | 0.527 | 0.601 |
| IA-LM | 0.336 | 0.364 | 0.274 | 0.348 | 0.317 | 0.885 | 0.748 | 0.693 | 0.753 | 0.585 | – | – | – | – | 0.932 | 0.966 | 0.971 | – | 1.01 | – |
| LC-2-ad | 0.582 | 0.336 | 0.466 | 0.317 | 0.543 | 0.43 | 0.546 | 0.377 | 0.447 | 0.429 | 0.661 | 0.533 | 0.8 | 0.632 | 0.644 | 0.721 | 0.655 | 0.788 | 0.704 | 0.626 |
| LCLC-97TM1 | 0.198 | 0.264 | 0.192 | 0.16 | 0.215 | 0.327 | 0.289 | 0.242 | 0.21 | 0.24 | 0.905 | 0.812 | 0.746 | 0.848 | 0.867 | 0.799 | 0.627 | – | 0.614 | 0.825 |
| LCLC-103H | 0.618 | 0.693 | 0.71 | 0.676 | 0.605 | 1.05 | 1.06 | 1.01 | 1.02 | 0.927 | 0.538 | 0.494 | 0.519 | 0.452 | 0.82 | 0.84 | 0.762 | 0.843 | 0.685 | 0.436 |
| LK-2 | 0.563 | – | 0.537 | – | 0.551 | 0.229 | – | 0.219 | – | 0.239 | 0.361 | 0.256 | 0.269 | 0.22 | 0.419 | 0.395 | 0.417 | 0.531 | 0.524 | 0.237 |
